What was measured:
[1] = system: SNU-5 (Gastric Carcinoma); experiment: Bliss excess, mean over the matrix (fraction); higher = more synergy
Summary of the method: (§1)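 Cell lines in DMEM/F12 or RPMI with 10% FBS were plated in 1536-well plates, held 24 hours at 37°C, 5% CO2, then given two-drug dose matrices for 72 hours (DMSO typically 0.2%). Viability was read by CellTiter-Glo 2.0 luminescence and scaled as inhibition from 0 (vehicle wells) to 1 (blank wells). Combination Emax is the second-highest inhibition in the matrix; Bliss excess is observed combination effect minus expected EA + EB − EA·EB, EA and EB being single-agent effects.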

[2] = system: UM-UC-3 (Bladder Carcinoma); experiment: as above
Summary of the method: as §1

[3] = system: KURAMOCHI (Ovarian Carcinoma); experiment: as above
Summary of the method: as §1

[4] = system: HCC1806 (Breast Carcinoma); experiment: as above
Summary of the method: as §1

42-MG-BA (Glioblastoma) = experiment: as above
Summary of the method: as §1

[5] = system: HT-1376 (Bladder Carcinoma); experiment: as above
Summary of the method: as §1

NB10 (Neuroblastoma) = experiment: as above
Summary of the method: as §1

[6] = system: MDA-MB-361 (Breast Carcinoma); experiment: as above
Summary of the method: as §1

[7] = system: Ramos-2G6-4C10 (Burkitt's Lymphoma); experiment: as above
Summary of the method: as §1

[8] = system: B-CPAP (Thyroid Gland Carcinoma); experiment: as above
Summary of the method: as §1

[9] = system: COLO-205 (Colorectal Carcinoma); experiment: as above
Summary of the method: as §1

[10] = system: Hs-578-T (Breast Carcinoma); experiment: as above
Summary of the method: as §1

[11] = system: HuP-T4 (Pancreatic Carcinoma); experiment: as above
Summary of the method: as §1

[12] = system: DEL (T-Cell Non-Hodgkin's Lymphoma); experiment: as above
Summary of the method: as §1

[13] = system: LB831-BLC (Bladder Carcinoma); experiment: combination Emax (second highest fraction inhibited in the dose matrix, 72 h); higher = more inhibition; extreme values may be limits of the assay
Summary of the method: as §1

ES4 (Ewing's Sarcoma) = experiment: as above
Summary of the method: as §1

[14] = system: KP-1N (Pancreatic Carcinoma); experiment: as above
Summary of the method: as §1

[15] = system: CAL-148 (Breast Carcinoma); experiment: as above
Summary of the method: as §1

[16] = system: NCI-H82 (Small Cell Lung Carcinoma); experiment: as above
Summary of the method: as §1

[17] = system: Hs-578-T (Breast Carcinoma); experiment: as above
Summary of the method: as §1
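For Bliss excess, mean over the matrix in this document: after 72 h of two-drug dosing.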

Row | SMILES | Bliss excess [1] | Bliss excess [2] | Bliss excess [3] | Bliss excess [4] | Bliss excess (42-MG-BA (Glioblastoma)) | Bliss excess [5] | Bliss excess (NB10 (Neuroblastoma)) | Bliss excess [6] | Bliss excess [7] | Bliss excess [8] | Bliss excess [9] | Bliss excess [10] | Bliss excess [11] | Bliss excess [12] | combination Emax [13] | combination Emax (ES4 (Ewing's Sarcoma)) | combination Emax [14] | combination Emax [15] | combination Emax [16] | combination Emax [17]
1 | Cn1cnc2c(F)c(Nc3ccc(Br)cc3Cl)c(C(=O)NOCCO)cc21 [Selumetinib] + C[C@@H]1COCCN1C2=NC(=NC(=C2)C3(CC3)[S@](=N)(=O)C)C4=C5C=CNC5=NC=C4 [AZD6738] (first compound max 10 µM, 7x7, partner max 10 µM) | 0.0524 | 0.0057 | 0.0517 | 0.0496 | -0.0061 | -0.021 | -0.0247 | -0.0396 | -0.0714 | -0.0026 | 0.0526 | 0.009 | 0.0891 | 0.0172 | 0.278 | 0.864 | 0.175 | 0.825 | 0.756 | 0.628
2 | CC(=O)Nc1cccc(-n2c(=O)n(C3CC3)c(=O)c3c(Nc4ccc(I)cc4F)n(C)c(=O)c(C)c32)c1 [Trametinib] + Cc1nc(-c2cn3c(n2)-c2ccc(-c4cnn(C(C)(C)C(N)=O)c4)cc2OCC3)n(C(C)C)n1 [Taselisib] (first compound max 1 µM, 7x7, partner max 10 µM) | 0.141 | 0.137 | 0.115 | 0.257 | 0.0593 | 0.0546 | 0.118 | 0.0263 | -0.0053 | 0.141 | 0.0229 | 0.0773 | 0.241 | 0.166 | 0.77 | 0.715 | 0.644 | 0.986 | 0.243 | 0.919
3 | CC1(C)CCC(CN2CCN(c3ccc(C(=O)NS(=O)(=O)c4ccc(NCC5CCOCC5)c([N+](=O)[O-])c4)c(Oc4cnc5[nH]ccc5c4)c3)CC2)=C(c2ccc(Cl)cc2)C1 [Venetoclax] + C1CN(CCC1(C(=O)N[C@@H](CCO)C2=CC=C(C=C2)Cl)N)C3=NC=NC4=C3C=CN4 [Capivasertib] (first compound max 1 µM, 7x7, partner max 3 µM) | -0.0485 | 0.0009 | -0.0538 | -0.0087 | -0.0239 | -0.0621 | -0.0808 | 0.0068 | 0.0177 | -0.0312 | -0.0423 | -0.0255 | -0.033 | -0.0589 | 0.334 | 0.155 | 0.172 | 0.966 | 0.3 | 0.812
4 | CC1(C)CCC(CN2CCN(c3ccc(C(=O)NS(=O)(=O)c4ccc(NCC5CCOCC5)c([N+](=O)[O-])c4)c(Oc4cnc5[nH]ccc5c4)c3)CC2)=C(c2ccc(Cl)cc2)C1 [Venetoclax] + C=CCn1c(=O)c2cnc(Nc3ccc(N4CCN(C)CC4)cc3)nc2n1-c1cccc(C(C)(C)O)n1 [AZD1775] (first compound max 1 µM, partner max 1 µM) | -0.0649 | -0.0225 | 0.0572 | -0.026 | -0.0687 | -0.0226 | -0.0113 | 0.0331 | 0.127 | -0.0835 | -0.0661 | -0.0347 | -0.0443 | -0.027 | 0.677 | 0.437 | 0.44 | 0.952 | 0.917 | 0.909
5 | CC1(C)CCC(CN2CCN(c3ccc(C(=O)NS(=O)(=O)c4ccc(NCC5CCOCC5)c([N+](=O)[O-])c4)c(Oc4cnc5[nH]ccc5c4)c3)CC2)=C(c2ccc(Cl)cc2)C1 [Venetoclax] + CCN(CCO)CCCOc1ccc2c(Nc3cc(CC(=O)Nc4cccc(F)c4)[nH]n3)ncnc2c1 [AZD2811] (first compound max 1 µM, 7x7, partner max 1 µM) | -0.0426 | -0.0234 | -0.0237 | 0.0137 | 0.0019 | -0.0605 | -0.0539 | 0.0884 | 0.0321 | 0.0031 | -0.0461 | -0.0451 | -0.0061 | -0.0345 | 0.188 | 0.164 | 0.162 | 0.933 | 0.457 | 0.802
6 | CC1(C)CCC(CN2CCN(c3ccc(C(=O)NS(=O)(=O)c4ccc(NCC5CCOCC5)c([N+](=O)[O-])c4)c(Oc4cnc5[nH]ccc5c4)c3)CC2)=C(c2ccc(Cl)cc2)C1 [Venetoclax] + CN(C)CCCOc1ccc(-c2ccc3ncc4c(c3c2)n(C2CCOCC2)c(=O)n4C)cn1 [AZD0156] (first compound max 1 µM, 7x7, partner max 1 µM) | 0.0053 | 0.0045 | -0.0039 | 0.0097 | 0.0057 | -0.0151 | 0.0418 | 0.0156 | 0.0676 | 0.0113 | -0.0153 | -0.0426 | -0.0099 | 0.0011 | 0.228 | 0.173 | 0.138 | 0.716 | 0.343 | 0.793
7 | CC1(C)CCC(CN2CCN(c3ccc(C(=O)NS(=O)(=O)c4ccc(NCC5CCOCC5)c([N+](=O)[O-])c4)c(Oc4cnc5[nH]ccc5c4)c3)CC2)=C(c2ccc(Cl)cc2)C1 [Venetoclax] + COc1cc(Nc2ncc3c(n2)-c2ccc(Cl)cc2C(c2c(F)cccc2OC)=NC3)ccc1C(=O)O [Alisertib] (first compound max 1 µM, 7x7, partner max 10 µM) | -0.0218 | 0.0184 | -0.0992 | 0.0042 | 0.0468 | -0.0812 | -0.0052 | 0.147 | 0.0209 | -0.0128 | -0.0172 | 0.107 | 0.0336 | 0.0094 | 0.456 | 0.233 | 0.357 | 0.74 | 0.73 | 0.851
8 | CC1(C)CCC(CN2CCN(c3ccc(C(=O)NS(=O)(=O)c4ccc(NCC5CCOCC5)c([N+](=O)[O-])c4)c(Oc4cnc5[nH]ccc5c4)c3)CC2)=C(c2ccc(Cl)cc2)C1 [Venetoclax] + C[C@@H]1COCCN1C2=NC(=NC(=C2)C3(CC3)[S@](=N)(=O)C)C4=C5C=CNC5=NC=C4 [AZD6738] (first compound max 1 µM, 7x7, partner max 10 µM) | -0.0437 | -0.0296 | -0.0451 | -0.0665 | -0.0057 | -0.0365 | 0.0159 | -0.0214 | -0.0389 | -0.0136 | -0.0328 | -0.122 | -0.037 | 0.01 | 0.466 | 0.793 | 0.235 | 0.888 | 0.86 | 0.909
9 | CC1(C)CCC(CN2CCN(c3ccc(C(=O)NS(=O)(=O)c4ccc(NCC5CCOCC5)c([N+](=O)[O-])c4)c(Oc4cnc5[nH]ccc5c4)c3)CC2)=C(c2ccc(Cl)cc2)C1 [Venetoclax] + C[C@@H](Nc1cc(F)cc(F)c1)c1cc(C(=O)N(C)C)cc2c(=O)cc(N3CCOCC3)oc12 [AZD8186] (first compound max 1 µM, 7x7, partner max 3 µM) | 0.0236 | -0.0164 | -0.0467 | -0.0149 | -0.0591 | -0.0446 | -0.0084 | -0.0151 | 0.0107 | -0.0151 | 0.0279 | -0.0314 | 0.0033 | 0.0055 | 0.182 | 0.211 | 0.235 | 0.263 | 0.141 | 0.734
10 | CC1(C)CCC(CN2CCN(c3ccc(C(=O)NS(=O)(=O)c4ccc(NCC5CCOCC5)c([N+](=O)[O-])c4)c(Oc4cnc5[nH]ccc5c4)c3)CC2)=C(c2ccc(Cl)cc2)C1 [Venetoclax] + Cc1cc2ncnn2cc1Nc1ncc2c(n1)n(C1CCOCC1)c(=O)n2C [AZD7648] (first compound max 1 µM, 7x7, partner max 10 µM) | -0.0063 | -0.0325 | -0.0605 | 0.0043 | -0.0013 | -0.0226 | 0.0053 | 0.0398 | 0.0435 | -0.0146 | -0.0584 | -0.0162 | -0.0151 | 0.0365 | 0.241 | 0.104 | 0.108 | 0.447 | 0.221 | 0.831
11 | CC1(C)CCC(CN2CCN(c3ccc(C(=O)NS(=O)(=O)c4ccc(NCC5CCOCC5)c([N+](=O)[O-])c4)c(Oc4cnc5[nH]ccc5c4)c3)CC2)=C(c2ccc(Cl)cc2)C1 [Venetoclax] + Cn1cnc2c(F)c(Nc3ccc(Br)cc3Cl)c(C(=O)NOCCO)cc21 [Selumetinib] (first compound max 1 µM, 7x7, partner max 3 µM) | -0.0192 | -0.0445 | -0.0333 | -0.025 | -0.0279 | -0.0411 | 0.0021 | -0.0299 | -0.0144 | -0.0446 | -0.0722 | 0.0045 | 0.0009 | 0.0117 | 0.142 | 0.0348 | 0.191 | 0.248 | 0.161 | 0.822

Reference: the supplement of paper PMC11061612
